Measurements: patent US7375232B2, “Ortho-heterocyclic substituted aryl amides for controlling invertebrate pests” (E.I. du Pont de Nemours and Company, priority 2001, dated 2008)

- melting point: 87 to 89 °C
Compound: Cc1cc(Cl)cc(-n2cccn2)c1NC(=O)c1cc(C(F)(F)F)nn1-c1ccccc1Cl [Compound 16]
